Molecular target: T1, 3-phosphoinositide-dependent protein kinase 1 (Homo sapiens, UniProt O15530)
T1 sequence (O15530 whole entry): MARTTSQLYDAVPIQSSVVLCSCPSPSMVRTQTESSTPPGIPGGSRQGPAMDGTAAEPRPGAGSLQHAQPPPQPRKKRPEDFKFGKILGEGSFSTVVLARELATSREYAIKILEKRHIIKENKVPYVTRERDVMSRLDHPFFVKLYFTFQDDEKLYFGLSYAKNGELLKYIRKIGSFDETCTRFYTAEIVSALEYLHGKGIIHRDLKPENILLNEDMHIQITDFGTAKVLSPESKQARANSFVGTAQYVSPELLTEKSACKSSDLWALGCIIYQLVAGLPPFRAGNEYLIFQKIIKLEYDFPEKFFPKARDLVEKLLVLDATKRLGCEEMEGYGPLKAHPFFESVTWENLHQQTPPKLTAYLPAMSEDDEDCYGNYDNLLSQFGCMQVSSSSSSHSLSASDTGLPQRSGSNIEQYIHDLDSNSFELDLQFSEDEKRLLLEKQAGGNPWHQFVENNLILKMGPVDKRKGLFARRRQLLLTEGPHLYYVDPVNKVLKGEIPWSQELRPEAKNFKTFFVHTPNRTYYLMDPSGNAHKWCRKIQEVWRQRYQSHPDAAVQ
Assay: PDK1-mediated AKT2 Activation Assay (cAKT2 33P-SPA)
Settings: pH 7.2; 22 °C
Method: The coupled assay can detect inhibitors of AKT2 activation, as well as direct inhibitors of PDK1 or AKT2. Inactive AKT2 is activated in situ by incubating with PDK1 and PtdIns-3, 4-P2 in the presence of compound, 33P-ATP, and a biotinylated peptide substrate for AKT2. The peptide is captured on streptavidin-coated SPA beads for detection.

| IC50 [nM] | SMILES |
| --- | --- |
| 12 | O=C(Nc1cccc(Nc2ncc(Br)c(NCCc3c[nH]cn3)n2)c1)N1CCCC1 [N-{3-[(5-bromo-4-{[2-(1H-imidazol-4-yl)ethyl]amino}pyrimidin-2-yl)amino]phenyl}pyrrolidine-1-carboxamide] |
| 6 | O=C(NCCCNc1nc(Nc2cccc(NC(=O)N3CCCC3)c2)ncc1I)c1cccs1 [N-{3-[(5-iodo-4-{[3-(thiophen-2-ylformamido)propyl]amino}pyrimidin-2-yl)amino]phenyl}pyrrolidine-1-carboxamide] |

Reference: BindingDB's records for doi:10.1074/jbc.M501367200 (Berlex Biosciences, 2005)
